PubChem BioAssay (NCI)
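Tested at 5 concentrations; 48 h exposure; 96-well plates; endpoints linearly interpolated, else capped at highest concentration. GI50 is the concentration that inhibits growth by half. TGI marks complete inhibition of growth.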

Tests used:
Test in all cases: DTP human tumour cell line panel, 48 h
RPMI-8226 leukemia = system: RPMI-8226 leukemia
A549 NSCLC = system: A549 NSCLC
SK-OV-3 ovarian = system: SK-OV-3 ovarian
UO-31 renal = system: UO-31 renal
CAKI-1 renal = system: CAKI-1 renal
SNB-75 CNS = system: SNB-75 CNS
MOLT-4 leukemia = system: MOLT-4 leukemia
SF-295 CNS = system: SF-295 CNS
SF-268 CNS = system: SF-268 CNS
HOP-62 NSCLC = system: HOP-62 NSCLC
TK-10 renal = system: TK-10 renal
OVCAR-5 ovarian = system: OVCAR-5 ovarian
HS 578T breast = system: HS 578T breast
SNB-19 CNS = system: SNB-19 CNS
SK-MEL-28 melanoma = system: SK-MEL-28 melanoma
T-47D breast = system: T-47D breast
UACC-62 melanoma = system: UACC-62 melanoma
U251 CNS = system: U251 CNS
HCT-116 colon = system: HCT-116 colon
MDA-MB-435 = system: MDA-MB-435
IGROV1 ovarian = system: IGROV1 ovarian
A498 renal = system: A498 renal
CCRF-CEM leukemia = system: CCRF-CEM leukemia
MALME-3M melanoma = system: MALME-3M melanoma
MCF7 breast = system: MCF7 breast
EKVX NSCLC = system: EKVX NSCLC
SK-MEL-5 melanoma = system: SK-MEL-5 melanoma
PC-3 prostate = system: PC-3 prostate
OVCAR-3 ovarian = system: OVCAR-3 ovarian
RXF 393 renal = system: RXF 393 renal
ACHN renal = system: ACHN renal
NCI/ADR-RES ovarian = system: NCI/ADR-RES ovarian
MDA-MB-231 breast = system: MDA-MB-231 breast
SN12C renal = system: SN12C renal
DU-145 prostate = system: DU-145 prostate
NCI-H226 lung = system: NCI-H226 lung
OVCAR-4 ovarian = system: OVCAR-4 ovarian
HT29 colon = system: HT29 colon
COLO 205 colon = system: COLO 205 colon
HCT-15 colon = system: HCT-15 colon
HCC-2998 colon = system: HCC-2998 colon
SF-539 CNS = system: SF-539 CNS
SK-MEL-2 melanoma = system: SK-MEL-2 melanoma
SR leukemia = system: SR leukemia
HL-60(TB) leukemia = system: HL-60(TB) leukemia
NCI-H23 lung = system: NCI-H23 lung
SW-620 colon = system: SW-620 colon
NCI-H460 lung = system: NCI-H460 lung
KM12 colon = system: KM12 colon
K-562 leukemia = system: K-562 leukemia
HOP-92 NSCLC = system: HOP-92 NSCLC
NCI-H522 lung = system: NCI-H522 lung
UACC-257 melanoma = system: UACC-257 melanoma
LOX IMVI melanoma = system: LOX IMVI melanoma
M14 melanoma = system: M14 melanoma
OVCAR-8 ovarian = system: OVCAR-8 ovarian
786-0 renal = system: 786-0 renal

## Cc1ccc(/C=C/C(=N/N=C(N)N)c2ccccc2)cc1
RPMI-8226 leukemia
  GI50: 2.3 µM
  TGI: 7.98 µM
A549 NSCLC
  GI50: 3.46 µM
  TGI: 12.5 µM
SK-OV-3 ovarian
  GI50: 2.99 µM
  TGI: 12.2 µM
UO-31 renal
  GI50: 3.75 µM
  TGI: 17.2 µM
CAKI-1 renal
  GI50: 8.97 µM
  TGI: 25.1 µM
SNB-75 CNS
  GI50: 2.04 µM
  TGI: 7.41 µM
MOLT-4 leukemia
  GI50: 3.01 µM
  TGI: 9.1 µM
SF-295 CNS
  GI50: 2.99 µM
  TGI: 13.1 µM
SF-268 CNS
  GI50: 4.13 µM
  TGI: 16.3 µM
HOP-62 NSCLC
  GI50: 3.57 µM
  TGI: 16 µM
TK-10 renal
  GI50: 3.89 µM
  TGI: 12 µM
OVCAR-5 ovarian
  GI50: 2.97 µM
  TGI: 12.4 µM
HS 578T breast
  GI50: 1.56 µM
  TGI: 5.14 µM
SNB-19 CNS
  GI50: 4.21 µM
  TGI: 17.3 µM
SK-MEL-28 melanoma
  GI50: 3.95 µM
  TGI: 15.8 µM
T-47D breast
  GI50: 4.3 µM
  TGI: 18.1 µM
UACC-62 melanoma
  GI50: 2.65 µM
  TGI: 11.9 µM
U251 CNS
  GI50: 3.1 µM
  TGI: 12.5 µM
HCT-116 colon
  GI50: 3.05 µM
  TGI: 12.2 µM
MDA-MB-435
  GI50: 0.432 µM
  TGI: 4.93 µM
IGROV1 ovarian
  GI50: 6.36 µM
  TGI: 23.1 µM
A498 renal
  GI50: 1.04 µM
  TGI: 4.92 µM
CCRF-CEM leukemia
  GI50: 2.34 µM
  TGI: 18.9 µM
MALME-3M melanoma
  GI50: 3.8 µM
  TGI: 20.2 µM
MCF7 breast
  GI50: 0.465 µM
  TGI: 12.4 µM
EKVX NSCLC
  GI50: 10.1 µM
  TGI: 28 µM
SK-MEL-5 melanoma
  GI50: 1.69 µM
  TGI: 3.86 µM
PC-3 prostate
  GI50: 3.32 µM
  TGI: 16.9 µM
OVCAR-3 ovarian
  GI50: 2.28 µM
  TGI: 6.03 µM
RXF 393 renal
  GI50: 1.62 µM
  TGI: 4.03 µM
ACHN renal
  GI50: 4.17 µM
  TGI: 17.4 µM
NCI/ADR-RES ovarian
  GI50: 3.14 µM
  TGI: 12 µM
MDA-MB-231 breast
  GI50: 1.7 µM
  TGI: 4.56 µM
SN12C renal
  GI50: 4.5 µM
  TGI: 16.9 µM
DU-145 prostate
  GI50: 3.33 µM
  TGI: 10.8 µM
NCI-H226 lung
  GI50: 3.09 µM
  TGI: 12.6 µM
OVCAR-4 ovarian
  GI50: 3.65 µM
  TGI: 15.6 µM
HT29 colon
  GI50: 2.53 µM
  TGI: 7.59 µM
COLO 205 colon
  GI50: 1.69 µM
  TGI: 3.74 µM
HCT-15 colon
  GI50: 2.74 µM
  TGI: 13.8 µM
HCC-2998 colon
  GI50: 3.11 µM
  TGI: 11.8 µM
SF-539 CNS
  GI50: 2.75 µM
  TGI: 8.65 µM
SK-MEL-2 melanoma
  GI50: 2.75 µM
  TGI: 8.04 µM
SR leukemia
  GI50: 0.897 µM
  TGI: 6.32 µM
HL-60(TB) leukemia
  GI50: 2.28 µM
  TGI: 4.75 µM
NCI-H23 lung
  GI50: 2.76 µM
  TGI: 11.8 µM
SW-620 colon
  GI50: 2.47 µM
  TGI: 13.8 µM
NCI-H460 lung
  GI50: 3.1 µM
  TGI: 10.1 µM
KM12 colon
  GI50: 2.97 µM
  TGI: 13.2 µM
K-562 leukemia
  GI50: 0.889 µM
  TGI: 10.4 µM
HOP-92 NSCLC
  GI50: 2.25 µM
  TGI: 8.42 µM
NCI-H522 lung
  GI50: 1.8 µM
  TGI: 5.12 µM
UACC-257 melanoma
  GI50: 2.96 µM
  TGI: 12.9 µM
LOX IMVI melanoma
  GI50: 3.28 µM
  TGI: 15.5 µM
M14 melanoma
  GI50: 1.67 µM
  TGI: 3.95 µM
OVCAR-8 ovarian
  GI50: 2.98 µM
  TGI: 10.9 µM
786-0 renal
  GI50: 2.41 µM
  TGI: 6.53 µM
